From patent US12065436B2, “Cardiac sarcomere inhibitors” (Cytokinetics, Inc., priority 2018, dated 2024)
Read-outs that look alike come from different tables or passages of the source.

Legend:
[1] = biological target: bovine cardiac myofibrils (full-length cardiac myosin ATPase in the native sarcomere) (Bos taurus (Bovine), UniProt Q9BE39); assay: Skinned bovine cardiac myofibril ATPase assay (PK/LDH-coupled); format: biochemical; details: Ca2+ activating to 75% of maximal rate
How it was run: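 Triton-skinned bovine left-ventricle myofibrils (1 mg/mL) in PM 12 buffer (12 mM PIPES, 2 mM MgCl2, pH 6.8) with 50 μM ATP, 0.6 mM EGTA and CaCl2 set for 50% or 75% activation. Steady-state ATPase inhibition followed by PK/LDH-coupled NADH oxidation at 340 nm.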

[2] = tested on: R403Q mice (alpha cardiac myosin heavy chain mutation, familial hypertrophic cardiomyopathy model); assay: Longitudinal echocardiography in R403Q mouse model of HCM; format: in vivo; details: compound formulated in chow for 24 weeks, echocardiography every 4 weeks, versus untreated R403Q mice
Experimental: Assessment over time of in vivo cardiac function by echocardiography was performed using a previously reported mouse model of familial hypertrophic cardiomyopathy, which was generated by an arginine to glutamine mutation at residue 403 (R403Q) of the alpha cardiac myosin heavy chain (MHC) gene (Geisterfer-Lowrance et al., Science. 1996 May 3; 272(5262):731-4). Cardiac dysfunction, fibrosis, and measures of cardiac hypertrophy (including ventricular wall thickness) increase with age in this mouse model (Geisterfer-Lowrance, supra; Jiang et al., Science. 2013, 342(6154):111-4).
R403Q mice received vehicle or Compound 142 formulated in chow for 24 weeks. Longitudinal echocardiography measurements were performed every 4 weeks. Echocardiography measurements were taken with mice under isoflurane (1-3%) anesthesia. 2-D M-mode images of the left ventricle were acquired in short-axis view. In vivo fractional shortening was determined by M-mode image analysis with the following calculation: ((End diastolic diameter−end systolic diameter)/end diastolic diameter×100).

[3] = tested on: rat cardiac contractility (left ventricle fractional shortening); assay: Echocardiography of acute effect on rat cardiac contractility, continuous IV infusion; format: in vivo, Sprague Dawley rats; details: Rattus norvegicus, plasma concentration at which fractional shortening is 50% of pre-dose baseline, estimated, read-out: IC50 (Mean ± S.D.)
How it was run: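 Male Sprague Dawley rats under 1–3% isoflurane received compound in 50% PG/16% Captisol/10% DMA by jugular infusion at 1 mL/kg/h. Left-ventricle M-mode images were taken at baseline and every 5 min, with infusion stopped at up to 60% fall in fractional shortening. Plasma levels gave the estimated IC50, the concentration at which fractional shortening is 50% of baseline.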

[4] = tested on: Dahl Salt Sensitive (DSS) rats, hypertension-induced model of heart failure with preserved ejection fraction; assay: Fibrosis reduction in Dahl Salt Sensitive rat model of cardiac hypertrophy; format: in vivo; details: high-salt diet fed DSS rats, compound formulated in chow for 6 weeks, perivascular and interstitial cardiac tissue
Experimental: Assessment of fibrosis reduction was performed using Dahl Salt Sensitive (DSS) rats, a previously reported hypertension-induced rat model of heart failure with preserved ejection fraction (Fillmore et al., Mol Med. 2018, 24(1):3; Dahl et al., J Exp Med. 1962, 115:1173-90).
DSS rats received vehicle or Compound 142 formulated in low or high salt chow for 6 weeks. Perivascular and interstitial cardiac tissue samples were imaged and assayed for % cardiac fibrosis.

[5] = tested on: rat cardiac contractility (left ventricle fractional shortening); assay: Echocardiography of acute effect on rat cardiac contractility, oral gavage; format: in vivo, Sprague Dawley rats; details: for inhibition in vivo at 6 mg/kg: oral gavage
How it was run: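 Male Sprague Dawley rats under isoflurane (1-3%) anesthesia had three pre-dose baseline M-mode images of the left ventricle (parasternal long-axis view) taken at 1 minute intervals. Compound in 0.5% HPMC 2910: 0.1% Tween 80 suspension was then given as a single oral gavage dose (5 mL/kg). Fractional shortening was measured at chosen time points over 24 hours, with plasma concentrations sampled concurrently.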

Sequence of bovine cardiac myofibrils (full-length cardiac myosin ATPase in the native sarcomere) (Q9BE39 whole entry): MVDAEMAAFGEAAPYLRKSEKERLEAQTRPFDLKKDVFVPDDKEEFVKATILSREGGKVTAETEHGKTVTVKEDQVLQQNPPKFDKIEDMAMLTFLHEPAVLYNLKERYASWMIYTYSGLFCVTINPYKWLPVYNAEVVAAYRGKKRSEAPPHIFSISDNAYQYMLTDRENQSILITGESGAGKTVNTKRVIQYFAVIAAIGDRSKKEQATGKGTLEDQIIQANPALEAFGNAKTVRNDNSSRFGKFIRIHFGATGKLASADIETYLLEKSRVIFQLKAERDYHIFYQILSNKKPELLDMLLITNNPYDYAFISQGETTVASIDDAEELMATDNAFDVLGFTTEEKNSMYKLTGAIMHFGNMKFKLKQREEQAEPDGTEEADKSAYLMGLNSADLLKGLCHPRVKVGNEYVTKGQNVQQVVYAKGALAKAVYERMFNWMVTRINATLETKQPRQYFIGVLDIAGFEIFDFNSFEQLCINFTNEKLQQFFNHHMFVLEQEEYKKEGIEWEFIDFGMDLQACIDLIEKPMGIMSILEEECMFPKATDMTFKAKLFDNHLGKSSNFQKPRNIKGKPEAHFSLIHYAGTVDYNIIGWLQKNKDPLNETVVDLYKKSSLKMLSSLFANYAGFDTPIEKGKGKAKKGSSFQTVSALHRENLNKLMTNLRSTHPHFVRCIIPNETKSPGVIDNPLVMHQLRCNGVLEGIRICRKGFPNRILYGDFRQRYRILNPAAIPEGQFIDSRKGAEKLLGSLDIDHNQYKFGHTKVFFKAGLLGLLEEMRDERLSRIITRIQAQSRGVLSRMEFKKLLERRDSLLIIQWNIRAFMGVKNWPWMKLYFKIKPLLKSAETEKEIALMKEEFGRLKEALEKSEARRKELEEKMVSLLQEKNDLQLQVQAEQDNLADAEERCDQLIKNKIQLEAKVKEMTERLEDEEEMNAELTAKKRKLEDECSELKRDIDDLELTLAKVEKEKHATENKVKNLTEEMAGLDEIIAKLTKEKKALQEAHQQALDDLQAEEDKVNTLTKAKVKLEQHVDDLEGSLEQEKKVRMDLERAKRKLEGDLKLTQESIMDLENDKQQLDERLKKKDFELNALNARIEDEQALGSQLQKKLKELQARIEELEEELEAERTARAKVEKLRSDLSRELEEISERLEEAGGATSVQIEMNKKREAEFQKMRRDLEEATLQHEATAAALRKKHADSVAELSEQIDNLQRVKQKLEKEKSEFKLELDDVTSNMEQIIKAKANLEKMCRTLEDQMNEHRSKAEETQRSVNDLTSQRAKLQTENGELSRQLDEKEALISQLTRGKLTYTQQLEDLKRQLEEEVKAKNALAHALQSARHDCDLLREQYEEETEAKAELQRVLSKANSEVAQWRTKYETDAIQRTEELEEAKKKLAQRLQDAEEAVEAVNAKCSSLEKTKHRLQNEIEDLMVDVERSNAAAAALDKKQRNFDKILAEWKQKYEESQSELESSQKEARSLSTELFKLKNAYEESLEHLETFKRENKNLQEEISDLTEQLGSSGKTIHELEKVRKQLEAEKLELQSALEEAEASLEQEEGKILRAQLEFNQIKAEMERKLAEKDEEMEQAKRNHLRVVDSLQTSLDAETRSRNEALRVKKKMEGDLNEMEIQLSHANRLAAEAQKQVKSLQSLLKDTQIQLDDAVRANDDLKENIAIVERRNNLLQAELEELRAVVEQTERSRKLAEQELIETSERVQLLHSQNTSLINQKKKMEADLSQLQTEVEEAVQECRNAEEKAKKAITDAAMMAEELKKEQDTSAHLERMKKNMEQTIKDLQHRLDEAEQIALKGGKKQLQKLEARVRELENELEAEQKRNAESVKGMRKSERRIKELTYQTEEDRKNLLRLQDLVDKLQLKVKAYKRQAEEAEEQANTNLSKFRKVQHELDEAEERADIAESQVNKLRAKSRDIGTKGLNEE
Sequence of bovine cardiac myofibrils (full-length cardiac myosin ATPase in the native sarcomere) (P85100 whole entry partner): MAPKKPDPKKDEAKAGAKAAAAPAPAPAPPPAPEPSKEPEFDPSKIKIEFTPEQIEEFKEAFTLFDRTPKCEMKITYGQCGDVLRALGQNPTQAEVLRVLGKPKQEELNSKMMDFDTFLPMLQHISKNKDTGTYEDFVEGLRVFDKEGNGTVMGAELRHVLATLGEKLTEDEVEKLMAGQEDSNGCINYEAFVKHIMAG
Sequence of bovine cardiac myofibrils (full-length cardiac myosin ATPase in the native sarcomere) (Q3SZE5 whole entry partner): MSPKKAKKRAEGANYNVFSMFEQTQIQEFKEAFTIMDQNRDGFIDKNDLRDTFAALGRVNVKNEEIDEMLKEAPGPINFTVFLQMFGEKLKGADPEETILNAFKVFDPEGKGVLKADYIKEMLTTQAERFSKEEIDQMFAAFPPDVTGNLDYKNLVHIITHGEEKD

CC(C)c1nc(-c2ccc3c(c2)CC[C@H]3NC(=O)c2nnn(C)n2)no1 [Compound 142, (R)—N-(5-(5-isopropyl-1,2,4-oxadiazol-3-yl)-2,3-dihydro-1H-inden-1-yl)-2-methyl-2H-tetrazole-5-carboxamide]
CDMF75 IC15 ([1]; concentration giving 15% inhibition): 0.5 µM
IC50 ([1]; read-out: CDMF75 IC50): 2400 nM
septal and left ventricular posterior wall thickness [2]: attenuated increases in septal and left ventricular posterior wall thickness
IC50 [3]: 2700 ± 120 nM
% cardiac fibrosis [4]: attenuated increases in fibrosis
inhibition in vivo at 6 mg/kg ([5]; Rattus norvegicus, 1 h, 1-2 h post dose, read-out: FS (% reduction from baseline) at 1-2 h post dose (Mean ± S.D.)): 40 ± 9%
IC50 ([5]; Rattus norvegicus, oral dosing, plasma concentration at which fractional shortening is 50% of pre-dose baseline, estimated): 2900 nM
inhibition in vivo at 6 mg/kg ([5]; Rattus norvegicus, 4 h post dose, read-out: FS (% reduction from baseline) at 4 h post dose (Mean ± S.D.)): 18 ± 11%
IC10 ([5]; oral dosing, plasma concentration at which, estimated): 0.7 µM
